Assay results: patent US9045468B2, “2,5-methano- and 2,5-ethano-tetrahydrobenzazepine derivatives and use thereof to block reuptake of norepinephrine, dopamine, and serotonin” (Albany Molecular Research, Inc., priority 2010, dated 2015)
Where two headings read alike, the source gives them in different places.

Columns and labels:
hSERT = hSERT (Homo sapiens (Human), UniProt P31645); assay: SERT radioligand binding assay ([125I]RTI-55, HEK-293 membranes)
Procedure: (§1) The medium was removed from the flasks and the cells rinsed with HBSS without Ca and without Mg. The cells were then incubated for 5-10 minutes in 10 mM Tris-Cl, pH 7.5, 5 mM EDTA before the cells were lifted with a combination of pipetting and scraping, as needed. The cell suspension was collected into centrifuge bottles and homogenized for 30 seconds with a Polytron homogenizer. The suspension was centrifuged for 30 minutes at 32,000×g, 4° C. The supernatant was decanted and the pellet resuspended and homogenized in 50 mM Tris-Cl, pH 7.5, 1 mM EDTA for 10 seconds. The suspension was then centrifuged again for 30 minutes at 32,000×g, 4° C. The supernatant was decanted and the pellet resuspended in 50 mM Tris-Cl, pH 7.5, 1 mM EDTA and briefly homogenized. A Bradford assay (Bio-rad) was performed and the membrane preparation diluted to 2 mg/ml with 50 mM Tris-Cl, pH 7.5, 1 mM EDTA. Aliquots were prepared, and then frozen and stored at −80° C.
Compounds were dissolved in 100% DMSO at a concentration 100 times the desired highest assay concentration, serially diluted 1:3 in 100% DMSO, and 0.4 μl/well of each solution was dispensed to a Nunc polypropylene, round bottom, 384-well plate. […] The contents of the assay plate were then transferred to a Millipore MultiscreenHTS GF/B filter plate which was pretreated with 0.5% PEI for at least one hour. The plate was vacuum filtered and washed with 7 washes of […] 50 mM Tris-Cl, pH 7.5, 120 mM NaCl, 5 mM KCl chilled to 4° C. The filtration and washing were completed in less than 90 seconds. The plates were air-dried overnight, 12 μl/well of MicroScint scintillation fluid added, and the plates counted in a Trilux.
(§2) Each plate was run in triplicate, and the concentration response curve thus generated was fit using the four-parameter dose response equation, Y=Bottom+(Top-Bottom)/(1+10^((Log IC50−X)*HillSlope)) in order to determine the IC50 value for each compound. The radioligand concentration chosen for each assay corresponds to the Kd concentration determined through saturation binding analysis for each assay.

hDAT = hDAT (Homo sapiens (Human), UniProt Q01959); assay: DAT radioligand binding assay ([125I]RTI-55, HEK-293 membranes)
Chain of hDAT (Q01959 whole entry): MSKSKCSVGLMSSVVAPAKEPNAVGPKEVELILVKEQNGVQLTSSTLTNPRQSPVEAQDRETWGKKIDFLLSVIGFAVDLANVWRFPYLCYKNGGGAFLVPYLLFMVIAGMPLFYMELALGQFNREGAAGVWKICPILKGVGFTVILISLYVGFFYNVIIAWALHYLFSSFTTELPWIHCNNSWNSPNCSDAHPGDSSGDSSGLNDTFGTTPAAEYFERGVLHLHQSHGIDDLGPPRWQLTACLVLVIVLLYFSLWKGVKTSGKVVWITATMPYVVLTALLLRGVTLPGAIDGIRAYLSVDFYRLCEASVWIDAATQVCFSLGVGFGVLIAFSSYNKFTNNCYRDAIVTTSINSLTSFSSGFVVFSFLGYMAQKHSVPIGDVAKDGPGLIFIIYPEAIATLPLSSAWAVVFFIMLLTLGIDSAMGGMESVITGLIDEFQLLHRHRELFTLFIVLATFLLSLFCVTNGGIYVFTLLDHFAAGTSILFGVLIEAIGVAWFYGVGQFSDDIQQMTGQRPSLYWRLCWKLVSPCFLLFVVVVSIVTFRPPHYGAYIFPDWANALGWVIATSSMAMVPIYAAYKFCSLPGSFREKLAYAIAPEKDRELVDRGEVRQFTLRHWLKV
Procedure: as §1, with “Recombinant HEK-293 cells expressing either the hSERT, hDAT, or hNET proteins were harvested from T-175 flasks as follows. The medium” for “The medium”
Compounds were dissolved in 100% DMSO at a concentration 100 times the desired highest assay concentration, serially diluted 1:3 in 100% DMSO, and 0.4 μl/well of each solution was dispensed to a Nunc polypropylene, round bottom, 384-well plate. […] 20 ul/well of a 2× membrane preparation (12.5 μg/ml in 30 mM sodium phosphate buffer, pH 7.9 at 4° C.) and 20 μl/well of a 2× radioligand solution (250 pM [^125I]RTI-55 in 30 mM sodium phosphate buffer, pH 7.9 at 4° C.) were added to the well and the reaction incubated for 1 hour at room temperature. The contents of the assay plate were then transferred to a Millipore MultiscreenHTS GF/B filter plate which was pretreated with 0.5% PEI for at least one hour. The plate was vacuum-filtered and washed with 7 washes of 100 μl/well 50 mM Tris-Cl, pH 7.5, 120 mM NaCl, 5 mM KCl chilled to 4° C. The filtration and washing were completed in less than 90 seconds. The plates were air-dried overnight, 12 μl/well of MicroScint scintillation fluid added, and the plates counted in a Trilux.
as §2

hNET = hNET (Homo sapiens (Human), UniProt P23975); assay: NET radioligand binding assay ([3H]nisoxetine, HEK-293 membranes); conditions: recombinant HEK-293 membranes, [3H]nisoxetine; read-out: Binding Affinity (IC50, nM) NET
Chain of hNET (P23975 whole entry): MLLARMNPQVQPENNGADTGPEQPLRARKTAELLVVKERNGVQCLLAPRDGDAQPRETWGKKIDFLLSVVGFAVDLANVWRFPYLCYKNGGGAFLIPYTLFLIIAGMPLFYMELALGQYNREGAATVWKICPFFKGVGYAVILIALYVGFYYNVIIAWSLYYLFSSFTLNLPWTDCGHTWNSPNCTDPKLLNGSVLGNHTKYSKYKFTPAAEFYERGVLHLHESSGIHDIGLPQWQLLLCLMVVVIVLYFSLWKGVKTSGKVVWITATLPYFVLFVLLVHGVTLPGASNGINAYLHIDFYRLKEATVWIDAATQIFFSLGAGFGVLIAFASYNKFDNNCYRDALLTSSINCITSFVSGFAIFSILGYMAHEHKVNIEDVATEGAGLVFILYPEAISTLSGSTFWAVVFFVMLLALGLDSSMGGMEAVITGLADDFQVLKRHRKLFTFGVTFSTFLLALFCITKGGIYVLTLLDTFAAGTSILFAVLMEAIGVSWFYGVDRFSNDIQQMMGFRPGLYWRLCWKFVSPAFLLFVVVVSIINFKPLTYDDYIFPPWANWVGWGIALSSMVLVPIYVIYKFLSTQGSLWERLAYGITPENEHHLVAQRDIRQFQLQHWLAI
Procedure: as §1
Compounds were dissolved in 100% DMSO at a concentration 100 times the desired highest assay concentration, serially diluted 1:3 in 100% DMSO, and 1.0 μl/well of each solution was dispensed to a Nunc polypropylene, round bottom, 384-well plate. […] 50 μl/well of a 2× membrane preparation (0.4 mg/ml in 50 mM Tris-Cl, pH 7.5, 120 mM NaCl, 5 mM KCl) and 50 μl/well of a 2× radioligand solution (4 nM [^3H]nisoxetine in 50 mM Tris-Cl, pH 7.5, 120 mM NaCl, 5 mM KCl) were added to the well and the reaction incubated for 1 hour at room temperature. The contents of the assay plate were then transferred to a Millipore MultiscreenHTS GF/B filter plate which was pretreated with 0.5% PEI for at least one hour. The plate was vacuum filtered and washed with 7 washes of 100 μl/well 50 mM Tris-Cl, pH 7.5, 120 mM NaCl, 5 mM KCl chilled to 4° C. The filtration and washing were completed in less than 90 seconds. The plates were air-dried overnight, 12 μl/well of MicroScint scintillation fluid added, and the plates counted in a Trilux.
as §2

[1] = recombinant HEK-293 membranes, [125I]RTI-55, read-out: Binding Affinity (IC50, nM) SERT
[2] = recombinant HEK-293 membranes, [125I]RTI-55, read-out: Binding Affinity (IC50, nM) DAT

Chain of hSERT (P31645 whole entry): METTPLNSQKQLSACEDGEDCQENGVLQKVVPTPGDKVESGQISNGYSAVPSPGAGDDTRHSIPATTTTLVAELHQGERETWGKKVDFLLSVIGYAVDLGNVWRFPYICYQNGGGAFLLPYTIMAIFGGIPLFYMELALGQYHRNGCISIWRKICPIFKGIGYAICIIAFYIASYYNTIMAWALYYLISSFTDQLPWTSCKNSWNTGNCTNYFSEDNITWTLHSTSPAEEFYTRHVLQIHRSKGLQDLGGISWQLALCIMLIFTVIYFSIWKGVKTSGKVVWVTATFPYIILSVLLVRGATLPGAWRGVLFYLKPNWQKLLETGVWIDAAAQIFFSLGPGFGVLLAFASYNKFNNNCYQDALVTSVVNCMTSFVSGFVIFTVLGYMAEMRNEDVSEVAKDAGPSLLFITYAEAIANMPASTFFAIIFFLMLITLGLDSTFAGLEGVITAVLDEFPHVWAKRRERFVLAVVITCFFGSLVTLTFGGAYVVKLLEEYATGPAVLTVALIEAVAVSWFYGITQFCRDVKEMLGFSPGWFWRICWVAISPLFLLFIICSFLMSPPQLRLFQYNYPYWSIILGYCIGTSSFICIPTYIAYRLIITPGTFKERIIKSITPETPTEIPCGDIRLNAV

SMILES | IC50 (hSERT; [1]) | IC50 (hDAT; [2]) | IC50 (hNET) | IC50 (hSERT) | IC50 (hDAT)
Clc1ccc(C23CCN(CC2)Cc2cc(OCCCc4cccnc4)ccc23)cc1 [Example 36, 5-(4-chlorophenyl)-2,5-ethano-8-(3-(pyridin-3-yl)propoxy)-2,3,4,5-tetrahydro-1H-benzo[c]azepine] | 1.2 nM | 65.7 nM | 62.3 nM |  | 
Oc1ccc(-c2ccc3c(c2)CN2CCC3(c3ccc(Cl)c(Cl)c3)CC2)nn1 [Example 41, 6-(5-(3,4-dichlorophenyl)-2,5-ethano-2,3,4,5-tetrahydro-1H-benzo[c]azepin-8-yl)pyridazin-3-ol] | 5 nM | 5.1 nM | 79.2 nM |  | 
Cc1nnc2ccc(-c3ccc4c(c3)CN3CCC4(c4ccc(Cl)cc4)CC3)cn12 [Example 20, 5-(4-chlorophenyl)-2,5-ethano-8-(3-methyl-[1,2,4]triazolo[4,3-a]pyridin-6-yl)-2,3,4,5-tetrahydro-1H-benzo[c]azepine] | 12.1 nM | 220 nM | 1020 nM |  | 
Fc1ccc(C23CCN(CC2)Cc2cc(Oc4ccc(C(F)(F)F)nn4)ccc23)cc1F [Example 51, 5-(3,4-difluorophenyl)-2,5-ethano-8-(6-(trifluoromethyl)pyridazin-3-yloxy)-2,3,4,5-tetrahydro-1H-benzo[c]azepine] | 20.2 nM | 63.2 nM | 231 nM |  | 
FC(F)(F)c1ccc(Oc2ccc3c(c2)CN2CCC3(c3cccc(Cl)c3)CC2)nn1 [Example 49, 5-(3-chlorophenyl)-2,5-ethano-8-(6-(trifluoromethyl)pyridazin-3-yloxy)-2,3,4,5-tetrahydro-1H-benzo[c]azepine] | 24.2 nM | 55.9 nM | 451 nM |  | 
FC(F)(F)c1ccc(-c2ccc3c(c2)CN2CCC3(c3ccc(Cl)cc3)CC2)nn1 [Example 15, 5-(4-chlorophenyl)-2,5-ethano-8-(6-(trifluoromethyl)pyridazin-3-yl)-2,3,4,5-tetrahydro-1H-benzo[c]azepine] |  |  | 384 nM | 2.6 nM | 121 nM
O=c1[nH]c2ccc(-c3ccc4c(c3)CN3CCC4(c4ccc(Cl)c(Cl)c4)C3)cc2o1 (single isomer, unassigned) [11(+), 8-(2-oxo-2,3-dihydrobenzo[d]oxazol-6-yl)-5-(3,4-dichlorophenyl)-2,5-methano-2,3,4,5-tetrahydro-1H-benzo[c]azepine] | 3.5 nM | 50 nM | 369 nM |  | 
Fc1ccc(C23CCN(CC2)Cc2cc(-c4ccc(C(F)(F)F)nn4)ccc23)cc1Cl [Example 53, 5-(3-chloro-4-fluorophenyl)-2,5-ethano-8-(6-(trifluoromethyl)pyridazin-3-yl)-2,3,4,5-tetrahydro-1H-benzo[c]azepine] | 2.1 nM | 120 nM | 345 nM |  | 
Cc1nnc(-c2ccc3c(c2)CN2CCC3(c3ccc(Cl)cc3)CC2)s1 [Example 25, 2-(5-(4-chlorophenyl)-2,5-ethano-2,3,4,5-tetrahydro-1H-benzo[c]azepin-8-yl)-5-methyl-1,3,4-thiadiazole] | 6.4 nM | 169 nM | 392 nM |  | 
Clc1ccc(C23CCN(Cc4cc(-c5ccc6ncnn6c5)ccc42)C3)cc1Cl (single isomer, unassigned) [10(+), 8-([1,2,4]triazolo[1,5-a]pyridin-6-yl)-5-(3,4-dichlorophenyl)-2,5-methano-2,3,4,5-tetrahydro-1H-benzo[c]azepine] | 4.6 nM | 49.5 nM | 242 nM |  | 
FC(F)(F)c1ccc(-c2ccc3c(c2)CN2CCC3(c3ccc(Cl)cc3)C2)nn1 (racemic) [Example 5, rac-5-(4-chlorophenyl)-2,5-methano-8-(6-(trifluoromethyl)pyridazin-3-yl)-2,3,4,5-tetrahydro-1H-benzo[c]azepine] | 10.1 nM | 74.2 nM | 274 nM |  | 
Clc1ccc(C23CCN(Cc4cc(-c5ccc6ncnn6c5)ccc42)C3)cc1Cl (single isomer, unassigned) [10(−), 8-([1,2,4]triazolo[1,5-a]pyridin-6-yl)-5-(3,4-dichlorophenyl)-2,5-methano-2,3,4,5-tetrahydro-1H-benzo[c]azepine] | 5.6 nM | 37.5 nM | 73.7 nM |  | 
O=c1ccccn1-c1ccc2c(c1)CN1CCC2(c2ccc(Cl)cc2)CC1 [Example 24, 1-(5-(4-chlorophenyl)-2,5-ethano-2,3,4,5-tetrahydro-1H-benzo[c]azepin-8-yl)pyridin-2(1H)-one] | 7.3 nM | 856 nM | 5330 nM |  | 
Oc1ccc2c(c1)CN1CCC2(c2ccc(Cl)cc2)CC1 [Example 13, 5-(4-chlorophenyl)-2,5-ethano-2,3,4,5-tetrahydro-1H-2-benzo[c]azepin-8-ol] | 16.3 nM | 21.1 nM | 691 nM |  | 
Fc1ccc(C23CCN(Cc4cc(-c5ccc6ncnn6c5)ccc42)C3)cc1Cl (single isomer, unassigned) [55(+), 8-([1,2,4]triazolo[1,5-a]pyridin-6-yl)-5-(3-chloro-4-fluorophenyl)-2,5-methano-2,3,4,5-tetrahydro-1H-benzo[c]azepine] | 18.6 nM | 121 nM | 956 nM |  | 
Fc1ccc(C23CCN(Cc4cc(-c5ccc6ncnn6c5)ccc42)C3)cc1Cl (single isomer, unassigned) [55(−), 8-([1,2,4]triazolo[1,5-a]pyridin-6-yl)-5-(3-chloro-4-fluorophenyl)-2,5-methano-2,3,4,5-tetrahydro-1H-benzo[c]azepine] | 2.2 nM | 35.3 nM | 175 nM |  | 
Fc1ccc(C23CCN(CC2)Cc2cc(-c4ccc5ncnn5c4)ccc23)cc1Cl [Example 54, 8-([1,2,4]triazolo[1,5-a]pyridin-6-yl)-5-(3-chloro-4-fluorophenyl)-2,5-ethano-2,3,4,5-tetrahydro-1H-benzo[c]azepine] | 4.4 nM | 78 nM | 541 nM |  | 
Fc1ccc(C23CCN(CC2)Cc2cc(Oc4ccc(C(F)(F)F)nn4)ccc23)cc1 [Example 52, 5-(4-fluorophenyl)-2,5-ethano-8-(6-(trifluoromethyl)pyridazin-3-yloxy)-2,3,4,5-tetrahydro-1H-benzo[c]azepine] | 8.9 nM | 42.8 nM | 206 nM |  | 
